Measurements: publication PMC10372009, “Molecular basis of GDF15 induction and suppression by drugs in cardiomyocytes and cancer cells toward precision medicine” (Scientific Reports, 2023)

Assays:
GDF15 [1] = assay: Basal GDF15 gene expression in 21 lung and colorectal cancer cell lines treated with BI 894999 (RNA sequencing, qPCR); format: cell-based, human; settings: of 21 treated lung and colorectal cancer cell lines; 10, 35 or 100 nM, 4 h or 24 h
Description: (§1) GDF15 overexpression can be both chemotherapy- and cancer-driven. Various cancer cell types were reported to overexpress GDF15, thereby exacerbating the development of cachexia. Whilst a personalized selection of chemotherapeutic agents has the potential to mitigate chemotherapy-driven GDF15 overexpression in cancer cells, it leaves basal overexpression of GDF15 unaffected. […] To test this further, we analyzed our own gene expression data of 21 lung and colorectal cancer cell lines treated with the BET inhibitor BI 894999[26]. […] Additionally, we analyzed fold-changes of GDF11 which is well known for its rejuvenating effect but also associated with cachexia, partially through upregulation of GDF15[19]. […] The more GDF15 expression was reduced, the more GDF11 expression tended to get increased upon BET inhibition in the respective cell lines (Fig. 5A).
(§2) Figure 5 GDF15 gene suppression by BET inhibitors. Effect of BET inhibition on basal GDF15 and GDF11 expression in 21 cancer cell lines and on doxorubicin-induced GDF15 overexpression in hiPSC-CMs. (A) Treatment of cancer cell lines with the BET Inhibitor BI 894999 (Supplementary Table S3). Fold-change of relative gene expression. Normalized gene expression analysis performed using RNA sequencing and qPCR, 95% confidence interval. […]

GDF11 = GDF11 gene expression in 21 lung and colorectal cancer cell lines treated with BI 894999; format: cell-based, human; settings: of 21 treated cell lines; 10, 35 or 100 nM, 4 h or 24 h
Description: as §1, §2

GDF15 [2] = assay: Doxorubicin-induced GDF15 mRNA expression in hiPSC-CMs, successive treatment with BET inhibitors (qPCR); format: cell-based, human; settings: BET inhibitor given subsequently to doxorubicin
Description: (§3) Host cells are known to contribute to elevated GDF15 levels in cachexia patients when exposed to drug toxicity. […] We plotted GDF15 fold-changes against the respective reported half maximal inhibitory concentrations (IC50) of each BET inhibitor for BRD2, BRD3 and BRD4, whenever available. GDF15 fold-change thereby meant the ratio of GDF15 expression induced by doxorubicin only and doxorubicin combined with BET inhibitor normalized to cell viability.
(§4) Cardiotoxic drug (SCREEN-WELL® Cardiotoxicity library, BML-2850, ENZO) library was prepared by serial dilution of 10 mM stocks in DMSO to 9 different concentrations ranging from 0.001 to 10 mM, which were further diluted into assay plates to final concentrations ranging from 0.001 to 10 µM. […] The final concentration of DMSO for hiPSC-CMs assay was 0.1%. To investigate the influence of BET inhibitor treatment on doxorubicin induced GDF15 mRNA expression, hiPSC-CMs were pre-treated with 20 nM or 200 nM doxorubicin for 48 h and kept in medium without compound for 24 h before 24 h treatment with either 100 nM BI 894999 or 500 nM OTX015. […] Cancer cell lines were treated with 10 nM, 35 nM or 100 nM of BI 894999 for 4 h or 24 h (Supplementary Table S3).
(§5) For GDF15 mRNA quantification, total RNA was isolated from the cells using an RNeasy kit (Qiagen, 74106) to synthesize cDNA using a Taqman Reverse Transcription kit (Applied Biosystems, N8080234). Quantitative real-time PCR analysis was performed using QuantiNova SYBR Green PCR Kit (Qiagen, 208052) on a CFX96 Real-Time System (Bio-Rad) under the following amplification conditions: 95 °C for 2 min followed by 40 cycles of 95 °C for 5 s and 60 °C for 10 s. The primer sequences are GDF15-F: 5′-[…]-3′, GDF15-R: 5′-[…]-3′, ACTB-F: 5′-[…]-3′ and ACTB-R: 5′-[…]-3′. PCR data were analyzed using a modified relative expression software tool (REST) and the expression level of GDF15 gene was normalized to that of β-actin.

BRD4 = assay: ChIP-seq of BRD4 bound to putative enhancers near the GDF15 gene locus in AML cell lines; format: cell-based; settings: 1 to 1000 nM, reanalysis of previously published ChIP-seq data ref 26
Description: In 50% of NCI-60, we thereby found a correlation between drug-induced GDF15 and BRD4 expression. […]

GDF15 [3] = assay: Doxorubicin-induced GDF15 secretion in hiPSC-CMs, simultaneous treatment with BET inhibitors (ELISA); format: cell-based, human; settings: simultaneous 100 nM doxorubicin and 0.1 to 1000 nM BET inhibitor, 48 h
Description: as §3, §4
as §5, with “β-actin. For secreted GDF15 protein quantification, cell culture medium was collected after drug treatment and stored at − 20 °C until ELISA was performed using Human GDF-15 ELISA Kit (Abcam, ab155432) according to the manufacturer’s instruction. Resulting GDF15 concentrations were normalized to non-treated control and respective relative cell viability.” for “β-actin.”
Supplementary Figure S6. (A) Fold-change of GDF15 secretion by hiPSC-CMs after simultaneous
treatment with doxorubicin and seven BET Inhibitors for 48 h. Normalized to cell viability and non-treated […]

cancer-driven cachexia = system: cancer-driven cachexia; set-up: method as in PMID 29167426; settings: mice; cited from earlier work

Structure (SMILES) | number of cell lines with significantly reduced GDF15 expression (GDF15 [1]) | number of cell lines with increased GDF11 expression (GDF11) | effect on doxorubicin-induced GDF15 overexpression (mRNA) (GDF15 [2]) | BRD4 bound to putative enhancers in close vicinity to the GDF15 gene locus (BRD4) | effect on doxorubicin-induced GDF15 overexpression (secretion) (GDF15 [3]) | effect on cancer-driven cachexia (cancer-driven cachexia)
CNc1nc(-c2nc3ccc(N4CCN(C)CC4)cc3n2Cc2ccccc2)cn2c(C)nnc12 [BI 894999] | 9 | 19 | suppressed | reduction of BRD4 bound to putative enhancers |  | 
Cc1sc2c(c1C)C(c1ccc(Cl)cc1)=N[C@@H](CC(=O)OC(C)(C)C)c1nnc(C)n1-2 [JQ1] |  |  |  |  | suppressed | counteract cancer-driven cachexia
